This data set can be described thus: Polymorphic stability of nateglinide Form B after processing: absence of Form H by X-ray powder diffraction. In kind it is physicochemical. As to conditions: Cu Kα-1, after de-lumping and air jet milling, Form H detectable at about 2 percent by weight or more. Here is the method:
Stability of the nateglinide Form B after processing is determined by an absence of the polymorphic Form H of the compound. This is determined by generating X-ray powder diffraction patterns of samples and checking for the characteristic peaks that correspond to Form H. For the present application, the X-ray diffraction patterns of the figures were obtained with Cu Kα-1 radiation. Nateglinide Form H can be detected at concentrations at least about 2 percent by weight, and quantified at concentrations at least about 5 percent by weight.

Take `CC(C)[C@H]1CC[C@H](C(=O)NC(Cc2ccccc2)C(=O)O)CC1` (single isomer, unassigned; (-)) [nateglinide Form B, (−)-N-[(trans-4-isopropylcyclohexane)-carbonyl]-D-phenylalanine]: the “presence of nateglinide Form H after particle size reduction (stability of Form B)” value was “not detected”.
